The values that follow come from ChEMBL document CHEMBL1151185, “Isolation and structure elucidation of a novel antimalarial macrocyclic polylactone, menisporopsin A, from the fungus Menisporopsis theobromae” (J Nat Prod, 2004).

Converted amounts (≈) assume the structure as drawn. The source made the active and inactive calls. The rule behind the calls is not given here.

For one assay, the system named is KB. The experiment in a line: Cytotoxicity against human KB cells by colorimetric method. Format: functional, cell-based.
A further assay deals with Candida albicans. Nature of the assay: Antimicrobial activity against Candida albicans at 20ug/mL. The assay is classed as functional, organism-based.
The test system of assay [1] is Mycobacterium tuberculosis. The experiment in a line: Antimycobacterial activity against Mycobacterium tuberculosis H37Ra by microplate alamar blue assay. Format: functional.
The subject of assay [2] is Plasmodium falciparum. The experiment in a line: Antimalarial activity against multidrug-resistant Plasmodium falciparum K1 by [3H]hypoxanthine uptake. The assay is classed as functional, organism-based.
A short description of assay [3]: Cytotoxicity against human BC1 cells by colorimetric method. Format: functional, cell-based.
For a further assay, the system named is BC1. Nature of the assay: Cytotoxicity against human BC1 cells at 20 ug/mL by colorimetric method. The assay is classed as functional, cell-based.
In assay [4] the test system is Plasmodium falciparum. The experiment in a line: Antimalarial activity against multidrug-resistant Plasmodium falciparum K1 at 20 ug/mL as reduced [3H]hypoxanthine uptake. Format: functional, organism-based.

Take `C[C@@H]1Cc2cc(O)cc(O)c2C(=O)O[C@H](C)CC(=O)O[C@H](C)Cc2cc(O)cc(O)c2C(=O)O[C@H](C)C[C@@H](O)Cc2cc(O)cc(O)c2C(=O)O[C@H](C)CC(=O)O1` [MENISPOROPSIN A]: the figures for the IC50 (with KB; with Plasmodium falciparum [2]; in assay [3]) were 6 µg/mL (≈ 7.51 µM), 4 µg/mL (≈ 5.01 µM) and 5 µg/mL (≈ 6.26 µM), respectively. Besides, in the assay with Candida albicans, the result was inactive. The compound further came in with an MIC in assay [1] of 50 µg/mL (≈ 62.6 µM).
Regarding `COc1cc2c(c(OC)c1)C(=O)O[C@H](C)CC(=O)O[C@H](C)Cc1cc(OC)cc(OC)c1C(=O)O[C@H](C)CC(=O)O[C@H](C)Cc1cc(OC)cc(OC)c1C(=O)O[C@H](C)C[C@@H](O)C2`, the outcome in the assay with Candida albicans, with BC1 and with Plasmodium falciparum [4] was inactive.
